US20250120399A1, “METHODS AND COMPOSITIONS FOR ALTERING METABOLITES IN VITIS SPP. AND PREVENTING PESTS AND PATHOGENS” (Impello Biosciences, Inc., priority 2022, published 2025)

Assays:
Assay type in all cases: in vivo
[1] = test system: Botrytis cinerea; experiment: Botrytis bunch rot percent disease incidence and severity, 2022 field trial (Example 4)
Protocol: Similar to Example 3 above, additional field trials were conducted in 2022 to investigate the efficacy of MDJ in preventing bunch rot (Botrytis cinerea). The objective of this trial was to evaluate the fungicidal efficacy of MDJ at 32 oz and 48 oz/A against Botrytis cinerea on wine grapes. Serenade® Opti at 16 oz/A was included for comparative purposes. Pro 90 a NIS with anti-foaming agent was included with each treatment at 2 oz/100 gal. The trial was conducted on 21-year-old Carignane grapes (Vitis vinifera).
The first of three foliar applications was initiated June 22nd (prior to veraison) followed a month later (July 21st when fruit was at early (5 to 10%) veraison, then at 40% veraison on August 1st. Applications were made using a backpack mistblower based on a spray volume of 80 gallons per acre. As a separate control of Erysiphe necator (powdery mildew), a maintenance fungicide program of two applications in June of fenarimol (4 oz/A) followed by two applications of fenarimol+Quintec (6 oz/A) at 2 week intervals was applied.
Temperatures throughout the trial ranged from highs of 89 to 104 degrees and lows of 50 to 66 degrees F. All treatments provided good crop safety with no phytotoxicity observed. Assessments were based on visual observation of the percent disease incidence and severity at each evaluation.

[2] = test system: Botrytis cinerea; experiment: Laccase analysis for prevalence of Botrytis, 2021 field trial (Example 3); details: cabernet sauvignon; approx. 5 mM MDJ at 50 gal/acre, four applications
Protocol: MDJ was applied to fields of grape to investigate the efficacy of MDJ in preventing bunch rot on (Botrytis cinerea) and powdery mildew (Erysiphe necator) on grapes. […] (1 liter) per 50 gallons of water (approximately a 5 mM solution of MDJ). The composition was then applied (at a rate of 50 gallons per acre) to three acres (1245 vines/acre) of a cabernet sauvignon variety grown in Napa Valley, CA. There was a total of four applications between June and September using a ground spray rig. To investigate the prevalence of Botrytis, the enzyme laccase was analyzed. Laccase can negatively impact wine by causing premature browning of bottled white wine and color degradation in red wine. The MDJ treated group had 2 units/ml, whereas the control (grower standard) had 5 units/ml. This level in the control group means that Botrytis problems can be expected during the wine making process, whereas in the MDJ treated group, the value of 2 units/ml means there will be no issues with Botrytis during the wine making process.

[3] = test system: Aspergillus carbonarius; experiment: Sour rot incidence and severity on black seedless grapes, 2022 field trial (Example 5); details: for Sour rot clusters of High severity (PESSEV) / Sour rot clusters of Low severity (PESSEV) / Sour rot clusters of Medium severity (PESSEV): ABCDE; for Sour rot clusters of High severity (PESSEV): Aug. 10, 2022, high = >51%; for Sour rot clusters of Low severity (PESSEV): Aug. 10, 2022, low = <40% of cluster area; for Sour rot clusters of Medium severity (PESSEV): Aug. 10, 2022, medium = 41%-50%; for Sour rot infected clusters (PESINC): applications ABCDE, rated Aug. 10, 2022
Protocol: (§1) Field trials were conducted in California 2022 (a dry year) to investigate the efficacy of MDJ in preventing Sour Rot caused by Aspergillus carbonarius (also known as summer bunch rot, abbreviated ASPECA in Table 7). Black seedless grapes (Vitis labrusca) were used in this trial. Four vines were used per plot. The plots were arranged in a randomized complete block design with six replicates (plots) per treatment. The plots were sprayed five times (ABCDE) at a rate of 500 gal/AC.
(§2) Treatments consisted of MDJ at 32 oz and 48 oz/A. A treatment of Regalia® at 1.5 qt/100 gal and Stargus® at 2 qt/100 gal was included for comparative purposes. Application D occurred at 5-10% veraison. Application E occurred at 40% veraison.
Botrytis and powdery mildew were absent for the trial. An evaluation of sour rot was completed before the harvest. The area of an infected cluster was estimated into a percentage and categorized into three levels of severity: low (<40%), medium (41%-50%), and high (>51%). The majority of individual infected clusters had low severity.

[4] = test system: Black seedless grapes (Vitis labrusca); experiment: Fruit Brix and titratable acid, black seedless grapes (Example 5); details: for Fruit BRIX / Titratable Acid, fruit: ABCDE; for Fruit BRIX: Aug. 11, 2022; for Titratable Acid, fruit: Sep. 8, 2022
Protocol: as §1, §2
A randomly selected sample of approximately twenty wine grapes was used to evaluate the Brix and titratable acid. Another randomly selected sample (>500 g) was shipped to ETS Laboratories (Paso Robles, CA) for a red grape panel analysis (catechin, quercetin glycosides, tannin, polymeric anthocyanins, total anthocyanins, catechin/tannin index, and polymeric anthocyanins/tannin index). […] Total anthocyanins increased over 17% (449.1 in untreated controls compared to 529.3 in the group treated with 48 oz/A MDJ). An increase in quercetin glycosides, tannin, and polymeric anthocyanins, was also observed in MDJ treated plants (Table 8), as well as titratable acid (Table 9).

## CCCCCC1C(=O)CCC1CC(=O)OC (centres unmarked) [MDJ, methyl dihydrojasmonate]
[1]; Carignane wine grapes, higher rate of MDJ (48 oz/A)
  Control of Botrytis incidence and severity, higher vs lower rate: numerically better control of Botrytis incidence and severity
[1]; MDJ Elicitor at both rates (32 and 48 oz/A), 26DAC, 20 bunches per plot
  B. cinerea suppression (disease incidence) vs untreated grapes: significantly better B. cinerea suppression
[1]; higher rate of MDJ (48 oz/A), 7 and 14 days after the third treatment (7 and 14DAC)
  Control of Botrytis, higher vs lower rate: significantly better control
[1]; low rate of MDJ (32 oz/A), 26DAC
  Control of Botrytis incidence compared to the Serenade Opti standard: significantly better control of Botrytis incidence
[2]
  Laccase: 2 units/ml
[3]; 32 oz/a
  Sour rot clusters of High severity (PESSEV): 1.3— NUMBER
  Sour rot clusters of Low severity (PESSEV): 7.2— NUMBER
  Sour rot clusters of Medium severity (PESSEV): 5.3— NUMBER
  Sour rot infected clusters (PESINC): 13.8— NUMBER
[3]; 48 oz/a
  Sour rot clusters of High severity (PESSEV): 0.8— NUMBER
  Sour rot clusters of Low severity (PESSEV): 6.2— NUMBER
  Sour rot clusters of Medium severity (PESSEV): 5.3— NUMBER
  Sour rot infected clusters (PESINC): 12.3— NUMBER
[3]; higher rate of MDJ Elicitor (48 oz/A)
  Control of sour rot compared to the rest of the treatments: most effective at controlling sour rot
[4]; 32 oz/a
  Fruit BRIX: 19.080— %
  Titratable Acid, fruit: 5.83— g/L
[4]; 48 oz/a
  Fruit BRIX: 19.560— %
  Titratable Acid, fruit: 6.67— g/L
[4]; MDJ treated plants
  Fruit Brix vs untreated: increase
  Titratable acid vs untreated: increase
